How the values were obtained:
Assay type in all cases: in vivo
[1] = system: Surinam grass (Brachiaria decumbens); experiment: Test B pre/postemergence
In short: (§1)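 Scores reflect visual comparison with untreated controls, where 0 means no effect and 100 complete control. Plants stayed 13 to 15 days in the greenhouse after pre- or postemergence treatment with compounds carried in a non-phytotoxic solvent and surfactant.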

[2] = system: barnyardgrass (Echinochloa crus-galli); experiment: Test B pre/postemergence
In short: as §1

[3] = system: cocklebur (Xanthium strumarium); experiment: Test B pre/postemergence
In short: as §1

corn (Zea mays) = experiment: Test B pre/postemergence
In short: as §1

[4] = system: crabgrass (Digitaria sanguinalis); experiment: Test B pre/postemergence
In short: as §1

[5] = system: giant foxtail (Setaria faberii); experiment: Test B pre/postemergence
In short: as §1

[6] = system: lambsquarters (Chenopodium album); experiment: Test B pre/postemergence
In short: as §1

[7] = system: morningglory (Ipomoea coccinea); experiment: Test B pre/postemergence
In short: as §1

[8] = system: pigweed (Amaranthus retroflexus); experiment: Test B pre/postemergence
In short: as §1

[9] = system: velvetleaf (Abutilon theophrasti); experiment: Test B pre/postemergence
In short: as §1

[10] = system: wheat (Triticum aestivum); experiment: Test B pre/postemergence
In short: as §1

[11] = system: blackgrass (Alopecurus myosuroides); experiment: Test B postemergence; conditions: for Blackgrass plant response rating: scale 0 to 100 (0 no effect, 100 complete control)
In short: as §1

wild oat (Avena fatua) = experiment: Test B postemergence; conditions: for Oat, Wild plant response rating: scale 0 to 100 (0 no effect, 100 complete control)
In short: as §1

[12] = system: barnyardgrass (Echinochloa crus-galli); experiment: Test B flooded paddy test; conditions: Flood
In short: (§2)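 Plants were grown to the 2-leaf stage before treatment, then kept in a greenhouse for 13 to 15 days. Injury was rated visually against untreated controls on a 0 to 100 scale, where 0 is no effect and 100 is complete control.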

[13] = system: duck salad (Heteranthera limosa); experiment: Test B flooded paddy test; conditions: Flood, scale 0 to 100
In short: as §2

rice (Oryza sativa) = experiment: Test B flooded paddy test; conditions: Flood, scale 0 to 100
In short: as §2

[14] = system: umbrella sedge (Cyperus difformis); experiment: Test B flooded paddy test; conditions: Flood, scale 0 to 100
In short: as §2

[15] = Postemergence, 125 g ai/ha, scale 0 to 100 (0 no effect, 100 complete control)
[16] = Postemergence, 500 g ai/ha, scale 0 to 100
[17] = Preemergence, 125 g ai/ha, scale 0 to 100 (0 no effect, 100 complete control)
[18] = Preemergence, 500 g ai/ha, scale 0 to 100 (0 no effect, 100 complete control)
[19] = Postemergence, 62 g ai/ha, scale 0 to 100 (0 no effect, 100 complete control)
[20] = Preemergence, 62 g ai/ha, scale 0 to 100, 0 no effect, 100 complete control

CCCOC(=O)c1nc(C2CC2)nc(N)c1Br [Compound 15]
10: Oat, Wild plant response rating (wild oat (Avena fatua); 125 g ai/ha)
70: Plant response rating, Cocklebur [3, 17] | Plant response rating, Crabgrass [4, 17] | Plant response rating, Foxtail, Giant [5, 16] | Plant response rating, Morningglory [7, 17] | Plant response rating, Velvetleaf [9, 17] | Plant response rating, Wheat [10, 16] | Blackgrass plant response rating ([11]; 125 g ai/ha) | Plant response rating, Oat, Wild (wild oat (Avena fatua); 500 g ai/ha, scale 0 to 100) | Plant response rating, Rice (rice (Oryza sativa); 1000 g ai/ha) | Plant response rating, Sedge, Umbrella ([14]; 1000 g ai/ha)
100: Cocklebur plant response rating [3, 15] | Plant response rating, Cocklebur [3, 16] | Cocklebur plant response rating [3, 18] | Lambsquarters plant response rating [6, 15] | Plant response rating, Lambsquarters [6, 16] | Lambsquarters plant response rating [6, 18] | Morningglory plant response rating [7, 15] | Plant response rating, Morningglory [7, 16] | Morningglory plant response rating [7, 18] | Plant response rating, Pigweed [8, 16] | Pigweed plant response rating [8, 18] | Velvetleaf plant response rating [9, 18]
80: Plant response rating, Corn (corn (Zea mays); [16]) | Corn plant response rating (corn (Zea mays); [18]) | Foxtail, Giant plant response rating [5, 18] | Pigweed plant response rating [8, 15] | Velvetleaf plant response rating [9, 15] | Plant response rating, Blackgrass ([11]; 500 g ai/ha, scale 0 to 100) | Plant response rating, Ducksalad ([13]; 1000 g ai/ha)
90: Plant response rating, Surinam Grass [1, 16] | Surinam Grass plant response rating [1, 18] | Barnyardgrass plant response rating [2, 15] | Plant response rating, Barnyardgrass [2, 16] | Barnyardgrass plant response rating [2, 18] | Crabgrass plant response rating [4, 18] | Plant response rating, Lambsquarters [6, 17] | Plant response rating, Pigweed [8, 17] | Plant response rating, Velvetleaf [9, 16] | Plant response rating, Barnyardgrass ([12]; 1000 g ai/ha, scale 0 (no effect) to 100 (complete control))
50: Corn plant response rating (corn (Zea mays); [15])
40: Plant response rating, Barnyardgrass [2, 17] | Foxtail, Giant plant response rating [5, 15] | Plant response rating, Foxtail, Giant [5, 17] | Wheat plant response rating [10, 15] | Plant response rating, Wheat [10, 17]
30: Plant response rating, Surinam Grass [1, 17] | Crabgrass plant response rating [4, 15]
60: Surinam Grass plant response rating [1, 15] | Plant response rating, Crabgrass [4, 16] | Wheat plant response rating [10, 18]
20: Plant response rating, Corn (corn (Zea mays); [17])

COC(=O)c1nc(-c2ccc(Br)cc2)nc(N)c1Br [Compound 129]
50: Surinam Grass plant response rating [1, 19] | Crabgrass plant response rating [4, 19] | Foxtail, Giant plant response rating [5, 15] | Morningglory plant response rating [7, 19] | Plant response rating, Velvetleaf [9, 20]
70: Surinam Grass plant response rating [1, 15] | Barnyardgrass plant response rating [2, 15] | Cocklebur plant response rating [3, 19] | Corn plant response rating (corn (Zea mays); [19]) | Crabgrass plant response rating [4, 15] | Blackgrass plant response rating ([11]; 62 g ai/ha) | Blackgrass plant response rating ([11]; 125 g ai/ha)
20: Wheat plant response rating [10, 15] | Plant response rating, Wheat [10, 17] | Plant response rating, Barnyardgrass ([12]; 500 g ai/ha, scale 0 to 100)
0: Plant response rating, Surinam Grass [1, 20] | Plant response rating, Corn (corn (Zea mays); [17]) | Plant response rating, Foxtail, Giant [5, 20] | Plant response rating, Foxtail, Giant [5, 17] | Plant response rating, Morningglory [7, 20] | Plant response rating, Morningglory [7, 17] | Wheat plant response rating [10, 19] | Plant response rating, Wheat [10, 20] | Oat, Wild plant response rating (wild oat (Avena fatua); 62 g ai/ha) | Plant response rating, Barnyardgrass ([12]; 125 g ai/ha, scale 0 to 100) | Plant response rating, Rice (rice (Oryza sativa); 125 g ai/ha) | Plant response rating, Rice (rice (Oryza sativa); 500 g ai/ha)
80: Corn plant response rating (corn (Zea mays); [15]) | Plant response rating, Lambsquarters [6, 17] | Plant response rating, Pigweed [8, 20] | Velvetleaf plant response rating [9, 19]
60: Barnyardgrass plant response rating [2, 19] | Plant response rating, Velvetleaf [9, 17]
40: Foxtail, Giant plant response rating [5, 19] | Oat, Wild plant response rating (wild oat (Avena fatua); 125 g ai/ha)
30: Plant response rating, Barnyardgrass [2, 17] | Plant response rating, Cocklebur [3, 17] | Plant response rating, Crabgrass [4, 17]
90: Plant response rating, Pigweed [8, 17] | Velvetleaf plant response rating [9, 15] | Plant response rating, Sedge, Umbrella ([14]; 125 g ai/ha)
100: Cocklebur plant response rating [3, 15] | Lambsquarters plant response rating [6, 19] | Lambsquarters plant response rating [6, 15] | Morningglory plant response rating [7, 15] | Pigweed plant response rating [8, 19] | Pigweed plant response rating [8, 15] | Plant response rating, Ducksalad ([13]; 125 g ai/ha) | Plant response rating, Ducksalad ([13]; 500 g ai/ha) | Plant response rating, Sedge, Umbrella ([14]; 500 g ai/ha)
10: Plant response rating, Surinam Grass [1, 17] | Plant response rating, Barnyardgrass [2, 20] | Plant response rating, Cocklebur [3, 20] | Plant response rating, Crabgrass [4, 20]

Reference: patent publication US8802597B2, “Herbicidal pyrimidines” (E I du Pont de Nemours and Company, priority 2003, dated 2014)
